Paper PMC9028180, “Anti-Inflammatory Activity of Monosubstituted Xestoquinone Analogues from the Marine Sponge Neopetrosia compacta” (Antioxidants, 2022)
Read-outs that look alike come from different tables or passages of the source.

Key:
[1] = system: NO production in LPS-stimulated RAW 264.7 murine macrophage cells; experiment: Nitric oxide production assay (Griess) in LPS-stimulated RAW 264.7 cells; type: cell-based
Experimental: The anti-inflammatory activity of the extracts and compounds was assessed according to the procedure of Ratnayake et al. (2013). RAW 264.7 murine macrophage cells (passage number ≤ 6) were grown in Dulbecco’s Modified Eagle’s Medium (DMEM) supplemented with 10% fetal bovine serum (FBS) and 1% antibiotic-antimycotic solution. At 24 h post-incubation, the cells (200,000 cells/mL) were treated with extracts (50 and 5 µg/mL) or pure compounds in triplicate. For pure compounds, a 20 mM stock was prepared in DMSO and serially diluted to generate eight concentrations ranging from 0.032–100 µM. DMSO (0.5%) served as the solvent control. Dexamethasone (50 µM) and tBHQ (10 µM) served as positive controls. LPS (1 µg/mL) was added to each well after 1 h of extract or compound pre-treatment. A reverse treatment was also done for compounds, where cells were first pre-treated with LPS (1 µg/mL) prior to the addition of the compound.
After 24 h of incubation, NO production was assessed by measuring the nitrite concentration using the Griess Reagent System (Promega, Madison, WI, USA) according to the manufacturer’s protocol. Results were presented as %NO production relative to LPS-stimulated solvent control.

[2] = system: LPS-stimulated RAW 264.7 murine macrophage cells; experiment: Tetrazolium-based (MTT) cell viability assay; details: for CC50: Mus musculus, RAW264.7, 24 h; for decrease in cytotoxicity relative to 1: from cell viability IC50, compound pre-treatment + LPS; for IC50: read-out: Cell Viability (IC50)
Experimental: MTT solution (5 mg/mL in PBS, 15 µL) was added to the original assay plate, and the reaction was terminated with the addition of acidified sodium dodecyl sulfate (SDS) solution after 2 h. Absorbance was measured at 570 nm. […] The concentration-dependent response curve for cell viability of the pure compounds was generated, and the IC50 was determined using a non-linear regression, inhibitor vs. normalized response—variable slope analysis. Samples were tested in at least one independent experiment performed in triplicate.
Statistical comparison of the cell viability IC50 of 2–6 relative to xestoquinone (1) was analyzed using one-way ANOVA and Tukey’s post-hoc test at p-value < 0.05. Comparison of the IC50 values from NO production and cytotoxicity assessment for each of the compounds were analyzed using a one-tailed unpaired t-test at p-value < 0.05.

[3] = system: Nrf2-luciferase reporter MCF7 stable cells; experiment: Nrf2-ARE activation luciferase reporter assay; type: cell-based
Experimental: Nrf2-luciferase reporter MCF7 stable cells (Signosis, Inc.) were grown in high glucose DMEM (Hyclone, Logan, UT, USA) supplemented with 10% FBS, 1% antibiotic-antimycotic solution, and 75 µg/mL geneticin. A 100-µL cell suspension was plated with a seeding density of 20,000 cells/well. The plate was incubated at 37 °C with 5% CO2 for 24 h prior to treatment. Cells were treated with compounds at half-log dilution, ranging from 0.032–100 µM (0.5% DMSO). DMSO (0.5%) and tBHQ (0.01–32 μM) served as solvent and positive controls, respectively. After 8-, 12-, and 16-h incubation, the medium was removed, and cells were washed with 100 µL 1X PBS. Lysis buffer (Signosis, Inc.) was added, and the plate was further incubated for 15 min at room temperature. A 100-µL firefly luciferase substrate (Signosis, Inc.) was added, and luminescence was measured. Nrf2 fold activation of treated cells was assessed relative to the solvent control. The assay was done in two independent experiments in triplicate.

[4] = system: Nrf2-luciferase reporter MCF7 stable cells; experiment: Cytotoxicity counter-screen on Nrf2-luciferase reporter MCF7 cells; type: cell-based
Experimental: Absorbance was measured at 570 nm. […] For the cytotoxicity counter-screen, Nrf2-luciferase reporter MCF7 stable cells were grown, seeded, and treated identically with the reporter assay. Cell viability was done using the tetrazolium reagent, as indicated previously.

[5] = system: Nos2; experiment: qRT-PCR differential gene expression, Nos2; type: cell-based, murine; details: 10 μM, 12 h, LPS-stimulated RAW 264.7; relative to LPS-stimulated solvent control
Experimental: (§1) RAW 264.7 cells (passage number ≤ 6) were seeded in a 6-well microplate at a density of 2.5 × 10^5 cells/well and incubated for 24 h at 37 °C with 5% CO2 prior to treatment. Cells were treated with 10 μM compound or 0.5% DMSO in duplicate and incubated for 1 h before stimulation with LPS (1 µg/mL). At 12 h post-treatment, total RNA was extracted with Qiagen RNeasy extraction kit (Germantown, MD, USA) according to manufacturer’s protocol. RNA was reverse-transcribed from 2 µg of total RNA using SuperScript IV Reverse Transcriptase (Invitrogen, Waltham, MA, USA), 1 mM dNTP, and Oligo (dT)12–18 primer (0.5 µg/mL, Invitrogen). Quantitative real time-PCR (qRT-PCR) was performed in ABI 7500 Fast Real-Time PCR (Applied Biosystems, Bedford, MA, USA). qRT-PCR was performed as a 25 µL total reaction mixture, composed of 1X TaqMan® universal master mix, 1X TaqMan® gene expression assay mix, 2 µL of cDNA, and 9.25 µL RNase-free sterile water. Analyses were carried out using probes for Il1b (Assay ID Mm00434228_m1), Nos2 (Mm00440502_m1), and Nqo1 (Mm01253561_m1). The thermocycler program was designed as follows: 50 °C for 2 min, 95 °C for 10 min, and 40 cycles of 95 °C for 15 s and 60 °C for 1 min. Mouse Gapdh (Mm99999915_g1) was used as the internal control for normalization. The measurement of gene expression is reported in cycles to threshold (Ct) PCR, whose value represents the cycle number at which the amount of amplified DNA of the target gene reached the threshold level. The relative gene expression was analyzed using the comparative Ct method to compare the Ct value of the target gene to the internal control in a treatment sample. Statistical analysis on the relative gene expression was carried out using one-way ANOVA and Tukey’s multiple comparison test with p-value < 0.05. Analysis was done in two independent experiments with three technical replicates each.

[6] = system: Il1b; experiment: qRT-PCR differential gene expression, Il1b; type: cell-based, murine; details: 10 μM, 12 h, LPS-stimulated RAW 264.7; relative to LPS-stimulated solvent control
Experimental: as §1

[7] = system: Nqo1; experiment: qRT-PCR differential gene expression, Nqo1; type: cell-based, murine; details: 10 μM, 12 h, LPS-stimulated RAW 264.7
Experimental: as §1

[8] = Direct antioxidant activity, DPPH scavenging assay; details: 30 min, room temperature
Experimental: The direct antioxidant activity of 1–6 was determined using the 2,2-diphenyl-1-picrylhydrazyl (DPPH) scavenging method. Half-log dilution of 1–6 (0.032 to 100 µM) was prepared in MeOH. Then, 20 μL of 1 mM DPPH was dispensed into each well and incubated for 30 min at room temperature with shaking. Absorbance was measured at 517 nm, and results are presented as % radical scavenging activity (% RSA) relative to the solvent control. Ascorbic acid (0.032–100 µM) and tBHQ (0.032–100 µM) served as positive controls, while 0.5% DMSO served as solvent control. The analysis was done in triplicate.

[9] = Mus musculus, RAW264.7, 24 h, Compound pre-treatment 1 h + LPS (1 µg/mL), 24 h, mean ± SD of two independent experiments, read-out: NO Production (IC50)
[10] = Mus musculus, RAW264.7, 24 h, LPS pre-treatment 1 h + compound, single experiment in triplicate, read-out: NO Production (IC50)
[11] = read-out: Cell Viability (IC50), Compound pre-treatment 1 h + LPS, 24 h, mean ± SD of two independent experiments
[12] = read-out: Cell Viability (IC50), LPS pre-treatment 1 h + compound, single experiment in triplicate
[13] = both timepoints (12 h and 16 h)
[14] = Compound pre-treatment 1 h + LPS (1 µg/mL), 24 h, mean ± SD of two independent experiments, read-out: NO Production (IC50)
[15] = LPS pre-treatment 1 h + compound, single experiment in triplicate, read-out: NO Production (IC50)
[16] = Compound pre-treatment 1 h + LPS, 24 h, mean ± SD of two independent experiments
[17] = LPS pre-treatment 1 h + compound, single experiment in triplicate

C[C@@]12CCCc3coc(c31)C(=O)c1cc3c(cc12)C(=O)C=CC3=O [Compound 1, xestoquinone]
IC50 [1, 9]: 1.2 ± 0.1 µM
IC50 [1, 10]: 0.99 µM
CC50 [2, 11]: 6 ± 3.2 µM
CC50 [2, 12]: 4.9 µM
Nrf2 activation ([3]; 12 h, 1.0 μM, relative to solvent control): at least three
Nrf2 activation ([3]; 12 h, 3.2 μM): at least three
Nrf2 activation ([3]; 12 h posttreatment): modest increase in Nrf2 activation
Nrf2 activation ([3]; 16 h, 1.0 μM): four
Nrf2 activity in reporter assay ([3]; 16 h incubation): significant activation
cytotoxicity to Nrf2-MCF7 cells ([4]; 12 h, 1.0 and 3.2 μM): no cytotoxicity
cytotoxicity to Nrf2-MCF7 cells ([4]; 16 h, 1.0 and 3.2 μM): no significant cytotoxic effects
downregulation of LPS-induced Nos2 expression [5]: 2.7 fold
downregulation of Il1b expression [6]: 2.6 fold
upregulation in Nqo1 expression [7]: did not change the Nqo1 expression

C[C@@]12CCCc3coc(c31)C(=O)c1cc3c(cc12)C(=O)C1=C(NCCS1(=O)=O)C3=O [Compound 2, adociaquinone B]
IC50 ([1]; Mus musculus, RAW264.7, 24 h, read-out: NO Production (IC50), Compound pre-treatment 1 h + LPS (1 µg/mL), 24 h, mean ± SD of two independent experiments): 1.9 ± 0.72 µM
IC50 ([1]; Mus musculus, RAW264.7, 24 h, read-out: NO Production (IC50), LPS pre-treatment 1 h + compound, single experiment in triplicate): 1.5 µM
CC50 [2, 11]: 5.3 to 6.4 µM
CC50 [2, 12]: 4.2 µM
Nrf2 activation [3, 13]: Nrf2 activation was not observed
downregulation of LPS-induced Nos2 expression [5]: unaffected
downregulation of Il1b expression [6]: 12.1 fold
upregulation in Nqo1 expression [7]: did not change the Nqo1 expression

CC12CCCc3coc(c31)C(=O)c1cc3c(cc12)C(=O)C=C(CO)C3=O (stereo not shown) [Compound 4, 14-hydroxymethylxestoquinone]
IC50 [1, 9]: 2.5 ± 0.39 µM
IC50 [1, 10]: 1.8 µM
CC50 [2, 11]: 16 ± 0.68 µM
CC50 [2, 12]: 27 µM
decrease in cytotoxicity relative to 1 [2]: more than two
Nrf2 activation ([3]; 12 h posttreatment): modest increase in Nrf2 activation

CC12CCCc3coc(c31)C(=O)c1cc3c(cc12)C(=O)C(CO)=CC3=O (stereo not shown) [Compound 5, 15-hydroxymethylxestoquinone]
IC50 [1, 9]: 4 ± 2.4 µM
IC50 [1, 10]: 4.7 µM
CC50 [2, 11]: > 32 µM
CC50 [2, 12]: > 32 µM
decrease in cytotoxicity relative to 1 [2]: five
downregulation of LPS-induced Nos2 expression [5]: 2.6 fold
downregulation of Il1b expression [6]: 2.1 fold
upregulation in Nqo1 expression [7]: 3.0 fold

O=C1O[C@H]([C@@H](O)CO)C(O)=C1O [ascorbic acid]
IC50 [8]: 13 µM

C[C@@H]1C[C@H]2[C@@H]3CCC4=CC(=O)C=C[C@]4(C)[C@@]3(F)[C@@H](O)C[C@]2(C)[C@@]1(O)C(=O)CO [dexamethasone, reference compound]
reduction of NO production ([1]; 50 µM): 50%
IC50 [1, 9]: > 0.032 µM
IC50 [1, 10]: > 0.032 µM
CC50 [2, 11]: > 100 µM
CC50 [2, 12]: > 100 µM

CC(C)(C)c1cc(O)ccc1O [tBHQ, reference compound]
reduction of NO production ([1]; 10 µM): 90%
IC50 [1, 14]: 1.2 ± 0.23 µM
IC50 [1, 15]: 0.42 µM
IC50 [2, 16]: > 100 µM
IC50 [2, 17]: > 100 µM
IC50 [8]: 11 µM
Nrf2 activation ([3]; 12 h, 32 μM): 18 fold
Nrf2 activation ([3]; 16 h, 10 μM): four
Nrf2 activation ([3]; 16 h, 32 μM): 19 fold
cytotoxicity to Nrf2-MCF7 cells ([4]; 12 h, 10 and 32 μM): no observable cytotoxicity
cytotoxicity to Nrf2-MCF7 cells ([4]; 16 h, 10 and 32 μM): non-cytotoxic
downregulation of LPS-induced Nos2 expression [5]: 3.8 fold
downregulation of Il1b expression [6]: six
upregulation in Nqo1 expression [7]: 6.3 fold

adociaquinone A [Compound 3]
IC50 [1, 14]: 2.1 ± 0.17 µM
IC50 [1, 15]: 1.5 µM
IC50 [2, 16]: 6.4 ± 1.2 µM
IC50 [2, 17]: 5.9 µM
Nrf2 activation [3, 13]: Nrf2 activation was not observed
